Assays:
Format in all cases: physicochemical
[1] = Examples 1-3: TLC analysis of heated liquid preparations containing LNB
Experimental: (§1) Each of the heated samples was cooled to 15° C., and 1 μL was then spotted onto a silica gel thin layer chromatography (TLC) plate. The plate was developed using an 80% acetonitrile solvent, and was then immersed in a 5% sulfuric acid solution and colorized by heating in an oven. The existence or absence of decomposed or denatured products (N-acetylglucosamine dehydrate and galactose) and the amount of those decomposed or denatured products were evaluated visually to determine whether or not decomposition had occurred, and if so, the extent of that decomposition.
100 g of the LNB powder prepared in the above Production Example 1 was dissolved in 9.9 kg of purified water, and 0.1 M hydrochloric acid was added to the solution to adjust the pH to 4.5. The resulting aqueous solution was preheated for 3 minutes at 70° C. using a UHT sterilizer (manufactured by Morinaga Engineering Co., Ltd.), subsequently sterilized at 130° C. for 2 seconds, and then cooled to 15° C., yielding 10 kg of a liquid preparation containing LNB.
100 g of the LNB powder prepared in the above Production Example 1 was added to 9.9 kg of a commercially available orange juice (manufactured by Morinaga Milk Industry Co., Ltd.), and the resulting mixture was heated at 80° C. for 15 minutes and then cooled to 15° C. 100 mL aliquots of the juice were used to fill glass bottles, which were then sealed, yielding 100 bottles of orange juice containing LNB.
100 g of the LNB powder prepared in the above Production Example 1 was dissolved in 9.9 kg of purified water, and 0.1 M citric acid was added to the solution to adjust the pH to 5.0. The resulting aqueous solution was heated at 90° C. for 30 minutes, and then cooled to 15° C., yielding 10 kg of a liquid preparation containing LNB.

[2] = Test Example 1: effect of pH on stability of LNB upon heating (2% LNB in buffer, TLC of decomposed products); conditions: 90° C. for 60 minutes
Experimental: Samples of the LNB powder prepared in the above Production Example 1 were dissolved at a concentration of 2% (by mass, this also applies to all subsequent concentration values) in a 0.1 M citrate buffer solution (pH: 3.0 to 6.0), a 0.1 M phosphate buffer solution (pH: 6.0 to 8.0) or a 0.1 M glycine buffer solution (pH: 8.5 to 10.5), thus preparing samples (liquid compositions containing LNB) 1 to 16 having pH values at intervals of 0.5 across the entire pH range mentioned above.
A 5 mL sample of each of the prepared samples 1 to 16 was dispensed into a test tube and heated at 90° C. for 60 minutes.
as §1

[3] = Test Example 2: effect of heating temperature and time on stability of LNB in neutral liquid composition (TLC); conditions: pH 7.0; 90° C. for 0-60 minutes or 65-88° C. for 60 minutes
Experimental: The LNB powder prepared in the above Production Example 1 was dissolved at a concentration of 2% in a 0.1 M phosphate buffer of pH 7.0 to prepare a sample (liquid composition containing LNB).
5 mL samples of the prepared sample were dispensed into test tubes, which were heated at 90° C. for 0, 10, 20, 30, 40, 50 or 60 minutes, or heated at 65, 67, 70, 75, 80, 85 or 88° C. for 60 minutes.
Each of the heated samples was cooled to 15° C., and the same method as that described for Test Example 1 was used to determine whether or not decomposition had occurred, and if so, the extent of that decomposition.

CC(=O)N[C@H]1C(O)O[C@H](CO)[C@@H](O)[C@@H]1O[C@@H]1O[C@H](CO)[C@H](O)[C@H](O)[C@H]1O (stereo partly drawn) [LNB, Lacto-N-biose]
decomposition of LNB (TLC) ([1]; Example 1: aqueous solution pH 4.5, 70° C. for 3 minutes, then 130° C. for 2 seconds): had not decomposed | decomposition of LNB (TLC) ([1]; Example 2: orange juice pH 4.51, 80° C. for 15 minutes): had not decomposed | decomposition of LNB (TLC) ([1]; Example 3: aqueous solution pH 5.0 (citric acid), 90° C. for 30 minutes): had not decomposed | stability of the LNB upon heating (decomposition by TLC) ([2]; pH 5.5 or less, particularly 5.0 or less): stable and underwent almost no decomposition | stability of the LNB upon heating (decomposition by TLC) ([2]; pH 6.0 or higher, particularly 7.0 or higher): significant amounts of decomposed or denatured products were observed | stability of LNB (decomposition by TLC) [3]: decomposed or denatured products were detected under all of the different heat treatment conditions

— patent publication US9060529B2, “Method for treatment of lacto-N-biose-containing solution” (Morinaga Milk Industry Co., Ltd., priority 2010, dated 2015)
